Measurements: patent US5051417A, “Indolythiadiazines for treating heart failure” (Les Laboratoires Beecham S.A., priority 1988, dated 1991)

Assays:
canine cardiac PDE, CAM = test: Canine cardiac PDE inhibition, CAM; format: biochemical; conditions: n in table
canine cardiac PDE, CGI = target: T1, canine cardiac PDE, CGI (Canis lupus familiaris, UniProt A0A8I3NYE0); test: Canine cardiac PDE inhibition, CGI; format: biochemical; conditions: n in table
T1 construct: CANINE CARDIAC PDE; from tissue; host or cells: dog heart
T1 sequence (A0A8I3NYE0 1-1135): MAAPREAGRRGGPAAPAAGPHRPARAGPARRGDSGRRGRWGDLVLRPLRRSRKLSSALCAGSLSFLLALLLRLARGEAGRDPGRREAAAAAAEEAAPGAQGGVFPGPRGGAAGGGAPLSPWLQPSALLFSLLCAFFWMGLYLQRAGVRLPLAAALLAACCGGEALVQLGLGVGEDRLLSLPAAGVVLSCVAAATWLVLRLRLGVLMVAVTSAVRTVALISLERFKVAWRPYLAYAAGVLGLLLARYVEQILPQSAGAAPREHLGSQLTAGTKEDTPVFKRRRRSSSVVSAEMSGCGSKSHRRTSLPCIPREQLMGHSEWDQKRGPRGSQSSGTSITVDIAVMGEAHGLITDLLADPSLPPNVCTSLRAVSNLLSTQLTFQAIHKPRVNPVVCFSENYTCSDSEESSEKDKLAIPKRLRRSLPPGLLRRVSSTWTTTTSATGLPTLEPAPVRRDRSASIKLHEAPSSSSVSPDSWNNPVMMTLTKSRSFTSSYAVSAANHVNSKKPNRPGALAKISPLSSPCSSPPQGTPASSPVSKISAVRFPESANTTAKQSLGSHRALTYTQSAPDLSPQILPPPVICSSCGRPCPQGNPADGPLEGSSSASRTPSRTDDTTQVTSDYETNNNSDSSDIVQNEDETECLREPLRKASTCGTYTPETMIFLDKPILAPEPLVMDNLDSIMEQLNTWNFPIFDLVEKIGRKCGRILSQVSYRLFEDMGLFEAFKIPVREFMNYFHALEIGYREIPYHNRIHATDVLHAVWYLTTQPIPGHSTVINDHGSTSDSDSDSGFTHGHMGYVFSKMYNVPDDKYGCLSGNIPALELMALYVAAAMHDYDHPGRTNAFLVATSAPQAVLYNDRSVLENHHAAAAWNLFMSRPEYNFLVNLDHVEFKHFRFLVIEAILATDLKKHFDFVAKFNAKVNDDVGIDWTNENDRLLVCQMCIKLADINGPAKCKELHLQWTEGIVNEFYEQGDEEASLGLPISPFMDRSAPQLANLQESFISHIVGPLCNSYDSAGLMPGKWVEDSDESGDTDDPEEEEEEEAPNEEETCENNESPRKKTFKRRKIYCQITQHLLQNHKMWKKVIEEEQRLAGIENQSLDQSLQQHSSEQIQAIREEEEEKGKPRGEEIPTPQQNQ

[1] = tested on: canine cardiac myofibrillar Ca++-dependent Mg++-ATPase; test: Measurement of myofibrillar Ca++-dependent Mg++-ATPase activity on canine cardiac myofibrils; format: biochemical; conditions: 30 μM, pH 7.0, 21° C.; for max (percent change of maximal ATPase activity): pCa=5.47
Experimental: 1. Measurement of myofibrillar Ca++-dependent Mq++-ATPase activity The effect on myofibrillar Ca++sensitivity and on maximal activity of myofibrillar Ca++-dependent Mg++-ATPase was determined on canine cardiac myofibrils. (a) Contractile protein preparation Cardiac myofibrils free of membrane contaminants were prepared from left ventricular tissue of dog hearts using a modification of the method described by SOLARO et al, Biochem. Biophys. Acta, 245, 259-262, (1971). Before centrifugation, the heart homogenate was filtered through gauze. After Triton X-100 treatments, the myofibrillar fraction was washed once by resuspension and centrifugation in 10 volumes of 1 mM EGTA, […], 30 mM imidazole, 2 mM MgCl2, pH 7.0. The pellet was then washed three times in 10 volumes of the same buffer without EGTA. Before the last centrifugation, the suspension of myofibrils was filtered through a stainless steel sieve with 0.25 mm meshes. Myofibrils were kept in pellet overnight. Before use, the pellet was suspended in a small amount of buffer, the protein concentration was determined by the method of BRADFORD M., Anal. Biochem., 1976, 72, 248 and adjusted in order to have a concentration between 6 and 7 mg/ml. (b) Myofibrillar ATPase activity Ca++-dependent myfibrillar ATPase activity was determined at 21° C., pH 7.0, by measuring the rate of release of inorganic phosphate. All assays were performed within 24hrs. of final purification, using the method described by SOLARO and […]., 51. 290-4,(1982). Reaction mixtures (4 ml) containing 0.6-0.7 mg/ml myofibrillar protein, 80mM KCl, 20 mM imidazole, 3 mM MgCl2, 1 mM EGTA, the desired amount of CaCl2, and the indicated concentration of drug or appropriate vehicle were preincubated for 6 min. prior to assay. The amount of CaCl2 was varied between 0 and 0.9 mM and the pCa (-log free Ca++) computed using 2.514×10^6 M^-1 as the apparent affinity of Ca++for EGTA at pH 7.0. Reactions were initiated by the addition of Na2 ATP to final concentration of 2 mM. After an incubation period of 12 min., reactions were quenched by the addition of an equal volume of ice-cold 10% trichloroacetic acid. The protein was pelleted by centrifugation (2000 g, 15 min.) and Pi was assayed in the supernatant fraction using a modification of the method described by LANZETTA et al, Anal. Biochem., 100, 95-97, (1979). The following solutions were prepared: (1) 3.7% ammonium heptamolybdate in 0.12 N H2 SO4 (2) 0.074% malachite green oxalate in 1% polyvinylic alcohol. The colour reagent was prepared by mixing an equal volume of solution (1) and (2) 15 min. before the assay. For the assay, 1,700 μl of 1% H2 SO4 and 1 ml of colour reagent were added to 100 μl of sample. Colour development occurred at room temperature for 30 min. and was quenched by the addition of 200 μl of 1M tri-potassium citrate. The absorbance was measured at 620 millimicrons. The effect of each compound, tested at the indicated concentration, on the relation between pCa and percent activation was determined taking 100% for the maximum ATPase activity obrained with vehicle alone. The effect on Ca++sensitivity was quantified by measuring the shift of the pCa giving 50% of the maximal control ATPase activity. The effect on maximal ATPase activity was expressed as the percent change of ATPase activity for pCa=5.47. Mean effects on myofibrillar ATPase activity were obtained from 1 to 5 preparations, (compounds tested at 2×10^-4 M).

anaesthetised dog = test: Cardiotonic activity in the dog (haemodynamics); format: in vivo, dog (male Beagle); conditions: i.v.

| Compound | IC50 (canine cardiac PDE, CAM) | IC50 (canine cardiac PDE, CGI) | max (percent change of maximal ATPase activity) [1] | pCa (shift of the pCa giving 50% of the maximal control ATPase activity; Ca++ sensitivity) [1] | AoBF (anaesthetised dog; 0.1 mg/kg) | AoBP (anaesthetised dog; 0.1 mg/kg) | H.R. (anaesthetised dog; 0.1 mg/kg) | dP/dt Max (anaesthetised dog; 0.1 mg/kg) | AoBF (anaesthetised dog; 0.3 mg/kg) | AoBP (anaesthetised dog; 0.3 mg/kg) | H.R. (anaesthetised dog; 0.3 mg/kg) | dP/dt Max (anaesthetised dog; 0.3 mg/kg) | AoBF (anaesthetised dog; 1.0 mg/kg) | AoBP (anaesthetised dog; 1.0 mg/kg) | H.R. (anaesthetised dog; 1.0 mg/kg) | dP/dt Max (anaesthetised dog; 1.0 mg/kg) | AoBF (anaesthetised dog; 3.0 mg/kg) | AoBP (anaesthetised dog; 3.0 mg/kg) | H.R. (anaesthetised dog; 3.0 mg/kg) | dP/dt Max (anaesthetised dog; 3.0 mg/kg) |
| --- | --- | --- | --- | --- | --- | --- | --- | --- | --- | --- | --- | --- | --- | --- | --- | --- | --- | --- | --- | --- |
| COC(=S)NN=C1C(=O)Nc2ccc(C3=NNC(=O)SC3C)cc21 (centres unmarked) [Example 3, O-Methyl 2-[2,3-dihydro-5-(3,6-dihydro-6-methyl-2-oxo-2H -1,3,4-thiadiazin-5-yl)-2-oxo-1H-indol-3-ylidene]-hydrazine carbothioate] | > 300000 nM | 270 nM | +3 ± 3% | +0.33 ± 0.05 | -30 ± 12% | -14 ± 7% | +28 ± 6% | +17 ± 6% | -63 ± 8% | -29 ± 6% | +54 ± 11% | +70 ± 5% | -50 ± 12% | -30 ± 1% | +93 ± 7% | +126 ± 9% | – | – | – | – |
| CC1SC(=O)NN=C1c1ccc2c(c1)C(=Cc1ccccc1O)C(=O)N2 (centres unmarked) [Example 17, 1,3-Dihydro-5-(3,6-dihydro-6-methyl-2-oxo-2H-1,3,4-thiadiazin-5-yl)-3-[(2-hydroxyphenyl)methylene]-2H -indol-2-one] | 23000 nM | 430 nM | -16 ± 3% | +0.60 ± 0.07 | – | – | – | – | +14 ± 2% | -8 ± 2% | +9 ± 3% | +6 ± 2% | +16 ± 1% | -7 ± 1% | +22 ± 5% | +35 ± 8% | +18 ± 4% | -20 ± 7% | +52 ± 13% | +81 ± 18% |
| CC1SC(=O)NN=C1c1ccc2c(c1)C(=NNc1ccccc1)C(=O)N2 (centres unmarked) [Example 5, 5-(3,6-Dihydro-6-methyl-2-oxo-2H-1,3,4-thiadiazin-5-yl)-1H -indole-2,3-dione 3-phenylhydrazone] | > 300000 nM | 130 nM | – | – | -25 ± 1% | -14 ± 6% | +8 ± 1% | +7 ± 2% | -34 ± 5% | -12 ± 3% | +18 ± 7% | +24 ± 6% | -28 ± 4% | -12 ± 1% | +19 ± 16% | +42 ± 16% | -37 ± 2% | -19 ± 3% | +58 ± 0% | +116 ± 31% |
